“And” between values parts separate entries of the source, which are not always exact repeats. Identical values can stand only once. Like-named read-outs stand apart in the source and are kept apart here.
Assays:
[1] = target: T1, PBRM1 BD (Homo sapiens, UniProt Q86U86); assay: TR-FRET binary and ternary (PROTAC + VCB) affinity, PBRM1 bromodomain; format: binding; conditions: individual replicates
T1 construct: GST (TEV site) (N); made in house; host or cells: Escherichia coli BL21(DE3)

[2] = target: T2, (Homo sapiens, UniProt P51532); assay: TR-FRET ternary complex affinity and cooperativity, SMARCA4; format: binding
T2 construct: P51532, residues 1448–1569 with additional N-terminal SM residues; GST (TEV site) (N); His6 (TEV site) (N, cleaved yes); made in house; host or cells: SMARCA4^BD: Escherichia coli BL21(DE3)
T2 sequence (P51532 1448-1569): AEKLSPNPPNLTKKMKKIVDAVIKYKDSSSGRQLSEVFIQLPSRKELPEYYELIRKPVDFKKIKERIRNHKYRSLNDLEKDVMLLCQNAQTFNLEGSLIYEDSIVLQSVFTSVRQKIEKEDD

[3] = test system: NCI-H1568 cells; assay: Cell viability assay (CellTiter Glo) in NCI-H1568; format: cell-based, human; conditions: for IC50: NCI-H1568, (18h), CellTiter Glo, individual replicates, read-out: NCI-H1568 (18h) CTG;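 for % Viability: percent of DMSO-treated control cells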
Description: 500–2000 cells were seeded in white, clear bottom 96-well plates (Corning or Perkin Elmer) in 180–200 µl medium per well. The next day, compounds were added using a digital dispenser and a T0 sample was measured for reference. […], and viability (luminescence) was measured using CellTiter Glo or CellTiter Glo 2.0 (Promega) according to manufacturer’s instructions after equilibrating cells and reagents at room temperature and 10–20 min incubation time while shaking.

[4] = target: SMARCA4 (Homo sapiens, UniProt P51532); assay: SMARCA4 capillary electrophoresis protein assay in RKO cells; format: cell-based; parameters: endogenous in cells; host or cells: RKO, HCT116, LU99, HCC-364, HCT-15, HCC4006, SK-N-AS
Chain of SMARCA4 (P51532 whole entry): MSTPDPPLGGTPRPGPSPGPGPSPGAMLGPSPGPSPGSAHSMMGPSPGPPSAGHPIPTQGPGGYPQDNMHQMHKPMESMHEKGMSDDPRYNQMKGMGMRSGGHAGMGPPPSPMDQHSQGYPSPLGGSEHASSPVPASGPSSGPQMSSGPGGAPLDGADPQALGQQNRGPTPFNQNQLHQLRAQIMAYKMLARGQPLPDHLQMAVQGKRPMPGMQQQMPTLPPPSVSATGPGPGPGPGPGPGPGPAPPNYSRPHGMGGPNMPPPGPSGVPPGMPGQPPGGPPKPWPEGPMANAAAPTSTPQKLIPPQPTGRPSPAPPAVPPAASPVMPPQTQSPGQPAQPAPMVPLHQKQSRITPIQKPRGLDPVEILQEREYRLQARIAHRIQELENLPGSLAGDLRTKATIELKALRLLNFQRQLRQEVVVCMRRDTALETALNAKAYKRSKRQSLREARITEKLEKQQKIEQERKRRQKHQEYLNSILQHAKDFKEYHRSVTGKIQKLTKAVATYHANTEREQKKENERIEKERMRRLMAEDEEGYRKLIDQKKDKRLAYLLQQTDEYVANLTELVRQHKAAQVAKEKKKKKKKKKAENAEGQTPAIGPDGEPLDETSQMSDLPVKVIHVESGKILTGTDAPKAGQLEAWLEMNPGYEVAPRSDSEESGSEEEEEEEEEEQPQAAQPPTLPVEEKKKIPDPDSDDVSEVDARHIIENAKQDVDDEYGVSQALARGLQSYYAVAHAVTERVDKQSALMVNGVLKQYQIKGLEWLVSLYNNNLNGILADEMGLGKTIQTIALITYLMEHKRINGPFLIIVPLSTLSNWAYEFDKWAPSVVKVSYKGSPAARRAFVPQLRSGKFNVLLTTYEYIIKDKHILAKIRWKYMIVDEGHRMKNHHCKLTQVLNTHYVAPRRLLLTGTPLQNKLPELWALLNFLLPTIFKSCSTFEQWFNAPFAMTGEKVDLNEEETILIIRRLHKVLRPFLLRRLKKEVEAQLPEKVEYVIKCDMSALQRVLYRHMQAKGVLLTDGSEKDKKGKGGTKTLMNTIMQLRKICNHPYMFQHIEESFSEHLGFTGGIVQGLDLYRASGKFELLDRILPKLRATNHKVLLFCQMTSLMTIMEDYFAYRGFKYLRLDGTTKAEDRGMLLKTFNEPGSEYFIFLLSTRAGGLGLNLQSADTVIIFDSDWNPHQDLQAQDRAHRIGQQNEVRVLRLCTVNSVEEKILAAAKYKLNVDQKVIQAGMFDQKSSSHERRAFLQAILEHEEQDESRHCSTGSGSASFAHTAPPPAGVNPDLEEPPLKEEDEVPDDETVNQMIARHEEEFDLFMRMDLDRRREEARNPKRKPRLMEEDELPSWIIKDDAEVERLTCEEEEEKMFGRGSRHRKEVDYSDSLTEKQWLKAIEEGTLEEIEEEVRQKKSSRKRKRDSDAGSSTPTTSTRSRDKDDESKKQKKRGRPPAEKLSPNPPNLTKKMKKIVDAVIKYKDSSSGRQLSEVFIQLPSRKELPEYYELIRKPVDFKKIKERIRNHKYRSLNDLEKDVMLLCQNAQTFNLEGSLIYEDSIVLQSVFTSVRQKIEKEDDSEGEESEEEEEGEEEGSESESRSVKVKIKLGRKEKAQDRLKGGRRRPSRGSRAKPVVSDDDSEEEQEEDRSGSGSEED
Description: 130,000–200,000 cells were seeded in 24-well plates and incubated until settled down or overnight. Compounds were dissolved in DMSO and added to cells in indicated concentrations using a digital dispenser following an optional media change. Cells were incubated for 4 or 18 h as indicated. For SMARCA2/4 half-life determination, 150,000 or 200,000 cells were seeded in 24-well plates. The next day, 50 µg/ml cycloheximide (Sigma) was added and cells were incubated for 1–24 h. For SMARCA2/4 re-synthesis measurements, 200,000 cells were seeded in 24-well plates. The next day, 100 nM compound 6 was added for 4 h to degrade SMARCA2/4, and a sample was taken as baseline for normalisation. To allow re-synthesis, a VHL binder (compound 32, 25 or 50 µM) was then added for 3 or 24 h. Medium was removed, cells were washed with PBS and lysed with 80 µl Lysis Buffer (MSD Tris Lysis Buffer (#R60TX-2) + Halt Inhibitor Cocktail (100x) + Benzonase 0.5 µL/ml). Samples were frozen at −80 °C and thawed at room temperature before use. Samples were transferred to a V-bottom plate and insoluble debris was pelleted by centrifugation for 5 min at maximum speed. The supernatant was transferred to a fresh plate. Master Mix and Ladder were prepared according to manufacturer’s instructions for 12–230 kDa Wes Separation Module, 8 × 25 capillary cartridges, Protein Simple #SM-W004 with Anti-Rabbit Detection Module for Wes, Peggy Sue or Sally Sue, Protein Simple #DM-001. 4.8 µl lysate were mixed with 1.2 µl Master Mix to achieve a protein concentration of ~0.5 µg/µl. Antibodies were diluted in Antibody Diluent II (SMARCA2 Sigma #HPA029981 RRID:AB_10602406 1:25–100, SMARCA4 Cell Signalling #49360 clone D1Q7F RRID:AB_2728743 1:15–120 or Abcam #ab110641 clone EPNCIR111A RRID:AB_10861578 1:60, GAPDH Abcam #ab9485 RRID:AB_307275 1:250). Wes plates were prepared and run according to manufacturer’s instructions. Proteins were quantified with accompanying Compass Software. SMARCA2/4 protein levels were normalised to GAPDH. […] Where applicable, curves were fitted using a 4-parametric logistic model.

[5] = target: VCB: PROTAC: SMARCA2^BD ternary complex (Homo sapiens, UniProt P40337+P51531); assay: TR-FRET ternary complex affinity and cooperativity, SMARCA2; format: binding; parameters: P51531-2, residues 1373-1493 with additional N-terminal SM residues; GST (TEV site) (N); His6 (TEV site) (N, cleaved yes); made in house; host or cells: SMARCA2^BD: Escherichia coli BL21(DE3)
Chain of VCB: PROTAC: SMARCA2^BD ternary complex (Homo sapiens, UniProt P40337+P51531) (P51531 with tags, fused parts or gaps isoform P51531-2): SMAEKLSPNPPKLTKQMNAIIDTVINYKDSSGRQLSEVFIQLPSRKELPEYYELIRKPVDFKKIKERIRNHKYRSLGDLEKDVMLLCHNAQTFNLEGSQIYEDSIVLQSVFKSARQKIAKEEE
Chain of VCB: PROTAC: SMARCA2^BD ternary complex (Homo sapiens, UniProt P40337+P51531) (P40337 54-213): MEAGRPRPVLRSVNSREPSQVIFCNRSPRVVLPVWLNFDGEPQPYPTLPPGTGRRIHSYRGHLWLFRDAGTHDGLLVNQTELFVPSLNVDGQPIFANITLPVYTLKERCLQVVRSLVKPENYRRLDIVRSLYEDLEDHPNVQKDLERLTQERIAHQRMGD
Chain of VCB: PROTAC: SMARCA2^BD ternary complex (Homo sapiens, UniProt P40337+P51531) (Q15369 17-112 partner): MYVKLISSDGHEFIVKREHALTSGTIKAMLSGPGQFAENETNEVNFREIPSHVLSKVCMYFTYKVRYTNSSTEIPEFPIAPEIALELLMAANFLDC
Chain of VCB: PROTAC: SMARCA2^BD ternary complex (Homo sapiens, UniProt P40337+P51531) (Q15370 1-104 partner): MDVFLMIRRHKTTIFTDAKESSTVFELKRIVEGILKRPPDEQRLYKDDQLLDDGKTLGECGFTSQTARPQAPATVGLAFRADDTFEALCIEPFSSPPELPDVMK

[6] = target: T3, VCB: PROTAC: SMARCA2^BD ternary complex (Homo sapiens, UniProt P51531); assay: as above; format: binding
T3 construct: P51531-2, residues 1373-1493 with additional N-terminal SM residues; GST (TEV site) (N); His6 (TEV site) (N, cleaved yes); made in house; host or cells: SMARCA2^BD: Escherichia coli BL21(DE3)
T3 sequence (P51531 with tags, fused parts or gaps isoform P51531-2): as the sequence (P51531 with tags, fused parts or gaps isoform P51531-2) above

[7] = TR-FRET competition for SMARCA4BD, without VCB, mean ± SD, read-out: TR-FRET SMARCA4BD EC50
[8] = binary, PROTAC alone, individual replicates, read-out: SMARCA4 BD EC50
[9] = PROTAC + VCB, individual replicates, read-out: Ternary SMARCA2 BD EC50 (PROTAC + VCB)
[10] = TR-FRET competition for SMARCA2BD, + VCB, mean ± SD, read-out: TR-FRET Ternary SMARCA2BD EC50 (PROTAC + VCB)
[11] = TR-FRET competition for SMARCA2BD, without VCB, mean ± SD, read-out: TR-FRET SMARCA2BD EC50
[12] = binary, PROTAC alone, individual replicates, read-out: SMARCA2 BD EC50

## Cc1ncsc1-c1ccc(C(CCC(C)CCN2CCC(c3ccc4c(c3)n(C3CCCC3)c3nc(=O)c5c(Br)cccc5n43)CC2)NC(=O)C2CC(O)CN2C(=O)C(NC(=O)C2(F)CC2)C(C)(C)C)cc1 (stereo not shown) [ACBI2]
[1]; PBRM1 EC50, binary, PROTAC alone
  EC50: 59.3 nM and 67.2 nM and 77.7 nM
[1]; Ternary PBRM1 BD EC50 (PROTAC + VCB), PROTAC + VCB
  EC50: 3.83 nM and 5.7 nM and 5.49 nM
[2]; [7]
  EC50: 314 ± 121 nM
[2]; [8]
  EC50: 308 nM and 459 nM and 220 nM
[3]; Homo sapiens, NCI-H1568, assay not given, read-out: EC50
  EC50: 7 nM
[3]; Homo sapiens, NCI-H1568, read-out: LogEC50 (viability) (converted)
  EC50: 7.43 nM
[3]; Homo sapiens, NCI-H1568, values derived from curves in Extended Fig 4b, read-out: EC50 mean
  EC50: 7.43 nM
[3]; NCI-H1568
  Bottom (% Viability, four-parameter fit): 1.886%
  HillSlope (viability): -1.08
  Top (% Viability, four-parameter fit): 95.68%
[3]
  IC50: 6.58 nM and 10.7 nM and 3.99 nM and 10.8 nM and 11.1 nM and 3.71 nM
[3]; NCI-H1568, log10 conc -5 mol/l
  % Viability: -0.296% and -0.02611% and -0.1217% and 0.4768% and -0.2501%
[3]; NCI-H1568, log10 conc -5.30103 mol/l
  % Viability: -0.06113% and -0.2267%
[3]; NCI-H1568, log10 conc -5.50031 mol/l
  % Viability: 0.1326% and 0.2417% and 0.02451% and 0.1536% and 0.8908%
[3]; NCI-H1568, log10 conc -5.90309 mol/l
  % Viability: 0.4837%
[3]; NCI-H1568, log10 conc -6.50446 mol/l
  % Viability: 2.441% and 0.7903%
[3]; NCI-H1568, log10 conc -7.10735 mol/l
  % Viability: 8.308% and 6.732%
[3]; NCI-H1568, log10 conc -8.31158 mol/l
  % Viability: 56.5669% and 89.3041%
[3]; NCI-H1568, log10 conc -8.91364 mol/l
  % Viability: 76.9492% and 107.085%
[3]; NCI-H1568, log10 conc -9.5157 mol/l
  % Viability: 76.1437% and 99.3609%
[3]; NCI-H1568, log10 conc -10 mol/l
  % Viability: 102.65% and 94.5594% and 117.406% and 60.7547% and 106.867%
[3]; NCI-H1568, log10 conc -10.1175 mol/l
  % Viability: 83.2326% and 93.6592%
[3]; NCI-H1568, log10 conc -10.5003 mol/l
  % Viability: 109.307% and 95.7558% and 110.528% and 76.6212%
[4]; RKO (4 h), mean ± SD
  DC50: > 25000 nM
[4]; RKO cells, time not stated at the place (Supplementary Data 2)
  DC50: 32 nM
[4]; RKO, RKO (18 h), mean ± SD
  Dmax: 67 ± 8%
[4]; RKO, SM4
  Bottom (% protein remaining, four-parameter fit): 39.28%
  Top (% protein remaining, four-parameter fit): 143.4%
[4]; RKO, SM4, conc 9.54e-12 mol/l
  % protein remaining: 113.734% and 126.165%
[4]; RKO, SM4, conc 3.81e-11 mol/l
  % protein remaining: 121.614% and 148.911%
[4]; RKO, SM4, conc 1.53e-10 mol/l
  % protein remaining: 135.787% and 142.842%
[4]; RKO, SM4, conc 6.1e-10 mol/l
  % protein remaining: 143.182% and 145.479%
[4]; RKO, SM4, conc 2.44e-9 mol/l
  % protein remaining: 149.21% and 160.401%
[4]; RKO, SM4, conc 9.77e-9 mol/l
  % protein remaining: 171.8% and 162.178%
[4]; RKO, SM4, conc 3.91e-8 mol/l
  % protein remaining: 85.9345% and 100.013%
[4]; RKO, SM4, conc 1.56e-7 mol/l
  % protein remaining: 33.2702% and 37.8218%
[4]; RKO, SM4, conc 6.25e-7 mol/l
  % protein remaining: 30.6123% and 41.0571%
[4]; RKO, SM4, conc 2.5e-6 mol/l
  % protein remaining: 28.0108%
[4]; RKO, SM4, conc 1e-5 mol/l
  % protein remaining: 64.9119%
[5]; [9]
  EC50: 40 nM and 41.1 nM and 43.2 nM and 39.8 nM and 44 nM
[5]; [10]
  EC50: 42 ± 2 nM
[6]; [11]
  EC50: 172 ± 109 nM
[6]; [12]
  EC50: 94.6 nM and 127 nM and 166 nM and 204 nM and 373 nM

## Cc1ncsc1-c1ccc([C@H](CCCCN2CCC(c3ccc4c(c3)n(C3CCCC3)c3nc(=O)c5c(Br)cccc5n43)CC2)NC(=O)[C@@H]2C[C@@H](O)CN2C(=O)[C@@H](NC(=O)C2(F)CC2)C(C)(C)C)cc1 [compound 25]
[1]; PROTAC + VCB, read-out: Ternary PBRM1 BD EC50 (PROTAC + VCB)
  EC50: 2.29 nM and 2.88 nM and 3.31 nM and 5.31 nM and 3.22 nM
[1]; binary, PROTAC alone, read-out: PBRM1 EC50
  EC50: 33 nM and 36.4 nM and 33.2 nM and 57.3 nM and 26.6 nM
[2]; [7]
  EC50: 182 ± 57 nM
[2]; [8]
  EC50: 134 nM and 202 nM and 155 nM and 262 nM
[3]; NCI-H1568 ([…]), mean ± SD, read-out: EC50 cell proliferation (CellTiter Glo)
  EC50: 7 ± 4 nM
[3]
  IC50: 11.9 nM and 5.25 nM and 6.51 nM
[4]; RKO (18 h), mean ± SD
  DC50: 40 ± 16 nM
  SMARCA4 Dmax: 52 ± 21%
[5]; [9]
  EC50: 208 nM and 27.9 nM and 62.3 nM and 29 nM and 29.1 nM and 33.2 nM and 38.8 nM and 39.9 nM and 50.6 nM and 51.7 nM and 46 nM and 34.5 nM and 27.1 nM
[5]; [10]
  EC50: 43 ± 48 nM
[6]; [11]
  EC50: 87 ± 35 nM
[6]; [12]
  EC50: 179 nM and 54.5 nM and 63.5 nM and 111 nM and 66.9 nM and 57.7 nM and 73.7 nM and 97.8 nM and 88.9 nM and 103 nM and 118 nM and 101 nM and 123 nM and 55.7 nM

From PMC9551036, “A selective and orally bioavailable VHL-recruiting PROTAC achieves SMARCA2 degradation in vivo” (Nature Communications, 2022)
